Experimental data taken from patent US7968577B2 (Bristol-Myers Squibb Company, priority 2006, dated 2011).

System: AP-1 induced transcriptional activity
Assay: Cellular Transrepressional Assay: AP-1 luciferase reporter in PMA-activated A549 cells
Assay type: cell-based
Conditions: Homo sapiens; for Emax: A549, 7 h, maximum inhibition, Cellular Transrepression Assay, read-out: AP-1 Max % inh (Cellular Transrepression Assay); for EC50: A549, Cellular Transrepression Assay
Method: Cellular Transrepressional Assay
To measure the ability of test molecules to inhibit AP-1 induced transcriptional activity we utilized an A549 cell which was stably transfected with a plasmid containing 7× AP-1 DNA binding sites (pAP-1-Luc plasmid, Stratagene Co. La Jolla, Calif.) followed by the gene for luciferase. Cells were activated with 10 ng/ml of […] (PMA) plus or minus test molecules for 7 hours. After 7 hours a luciferase reagent was added to measure luciferase enzymatic activity in the cell. After a 10 minute incubation of luciferase reagent with cells, luminescence was measured in a TopCount luminescence counter. Repression of AP-1 activity was calculated as the percentage decrease in the signal induced by PMA alone. Test molecules were analyzed in the concentration range from 0.1 nM to 40 μM. EC50s were determined by using standard curve fitting methods such as Excel fit (Microsoft Co.).

SMILES: CC(C)(C(=O)Nc1nccs1)C(c1ccc(N2CCOCC2)cc1)c1cccc(F)c1 (single isomer, unassigned) [Example 253, 3-(3-fluorophenyl)-2,2-dimethyl-3-(4-(4-morpholinyl)phenyl)-N-1,3-thiazol-2-ylpropanamide]
- Emax: 27.9%
- EC50: 37 nM

SMILES: CC(C)(C(=O)Nc1nncs1)C(c1ccc(N2CCOCC2)cc1)c1cccc(F)c1 (single isomer, unassigned) [Example 255, 3-(3-fluroophenyl)-2,2-dimethyl-3-(4-(4-morpholinyl)phenyl)-N-1,3,4-thiadiazol-2-ylpropanamide]
- Emax: 43%
- EC50: 10.2 nM

SMILES: CC(C)(C(=O)Nc1nccs1)[C@H](c1ccccc1)c1ccc(N2CCOCC2)cc1 (stereo in doubt) [Example 258, 2,2-dimethyl-3-(4-(4-morpholinyl)phenyl)-3-phenyl-N-1,3-thiazol-2-ylpropanamide]
- Emax: 42.7%
- EC50: 10.5 nM

SMILES: COc1ccc([C@@H](c2ccccc2)C(C)(C)C(=O)Nc2nc(Cc3ccc(-c4ccncc4)cc3)cs2)cc1 (stereo in doubt) [Example 290, 2,2-dimethyl-3-(4-(methyloxy)phenyl)-3-phenyl-N-(4-((4-(4-pyridinyl)phenyl)methyl)-1,3-thiazol-2-yl)propanamide]
- Emax: 72.6%
- EC50: 9.65 nM

SMILES: COc1ccc([C@H](c2ccccc2)C(C)(C)C(=O)Nc2nc(Cc3ccc(-c4ccncc4)cc3)cs2)cc1 (stereo in doubt) [Example 291, 2,2-dimethyl-3-(4-(methyloxy)phenyl)-3-phenyl-N-(4-((4-(4-pyridinyl)phenyl)methyl)-1,3-thiazol-2-yl)propanamide]
- Emax: 74.3%
- EC50: 10.3 nM

SMILES: COc1cccc2sc(NC(=O)C(C)(C)C(c3ccccc3)c3ccccc3)nc12 [Example 46, 2,2-dimethyl-N-(4-(methyloxy)-1,3-benzothiazol-2-yl)-3,3-diphenylpropanamide]
- Emax: 22.9%

SMILES: CCOC(=O)/C(=N/OC)c1csc(NC(=O)C(C)(C)C(c2ccccc2)c2ccccc2)n1 [Example 49, ethyl (2E)-(2-((2,2-dimethyl-3,3-diphenylpropanoyl)amino)-1,3-thiazol-4-yl)((methyloxy)imino)ethanoate]
- Emax: 20.1%

SMILES: COc1ccc(C(c2ccc(OC)cc2)C(C)(C)C(=O)Nc2nc(C(C)(C)C)cs2)cc1 [Example 74, N-(4-(1,1-dimethylethyl)-1,3-thiazol-2-yl)-2,2-dimethyl-3,3-bis(4-(methyloxy)phenyl)propanamide]
- Emax: 28.1%

SMILES: COc1ccccc1C(c1ccccc1)C(C)(C)C(=O)Nc1nc(C)cs1 (stereo not shown) [Example 81, 2,2-dimethyl-3-(2-(methyloxy)phenyl)-N-(4-methyl-1,3-thiazol-2-yl)-3-phenylpropanamide]
- Emax: 23.1%

SMILES: COc1ccccc1C(c1ccccc1)C(C)(C)C(=O)Nc1ncc(C)s1 (stereo not shown) [Example 82, 2,2-dimethyl-3-(2-(methyloxy)phenyl)-N-(5-methyl-1,3-thiazol-2-yl)-3-phenylpropanamide]
- Emax: 25.9%

SMILES: COc1ccccc1C(c1ccccc1)C(C)(C)C(=O)Nc1nc(-c2ccccc2)cs1 (stereo not shown) [Example 84, 2,2-dimethyl-3-(2-(methyloxy)phenyl)-3-phenyl-N-(4-phenyl-1,3-thiazol-2-yl)propanamide]
- Emax: 30.8%

SMILES: COc1cccc(C(c2ccccc2)C(C)(C)C(=O)Nc2nccs2)c1 (stereo not shown) [Example 91, 2,2-dimethyl-3-(3-(methyloxy)phenyl)-3-phenyl-N-1,3-thiazol-2-ylpropanamide]
- Emax: 23.2%

SMILES: COc1cccc(C(c2ccccc2)C(C)(C)C(=O)Nc2ncc(C)s2)c1 (stereo not shown) [Example 93, 2,2-dimethyl-3-(3-(methyloxy)phenyl)-N-(5-methyl-1,3-thiazol-2-yl)-3-phenylpropanamide]
- Emax: 28.1%

SMILES: COc1cccc(C(c2ccccc2)C(C)(C)C(=O)Nc2nc(C)c(C)s2)c1 (stereo not shown) [Example 94, N-(4,5-dimethyl-1,3-thiazol-2-yl)-2,2-dimethyl-3-(3-(methyloxy)phenyl)-3-phenylpropanamide]
- Emax: 35.4%

SMILES: COc1cccc(C(c2ccccc2)C(C)(C)C(=O)Nc2nc(-c3ccccc3)cs2)c1 (stereo not shown) [Example 95, 2,2-dimethyl-3-(3-(methyloxy)phenyl)-3-phenyl-N-(4-phenyl-1,3-thiaozl-2-yl)propanamide]
- Emax: 36.2%

SMILES: COc1cccc(C(c2ccccc2)C(C)(C)C(=O)Nc2nc(C(C)(C)C)cs2)c1 (stereo not shown) [Example 96, N-(4-(1,1-dimethylethyl)-1,3-thiazol-2-yl)-2,2-dimethyl-3-(3-(methyloxy)phenyl)-3-phenylpropanamide]
- Emax: 37.1%

SMILES: COc1cccc(C(c2ccccc2)C(C)(C)C(=O)Nc2nc(CCc3ccccc3)cs2)c1 (stereo not shown) [Example 97, 2,2-dimethyl-3-(3-(methyloxy)phenyl)-3-phenyl-N-(4-(2-phenylethyl)-,3-thiaozl-2-yl)propanamide]
- Emax: 26.5%

SMILES: CCOC(=O)c1sc(NC(=O)C(C)(C)C(c2ccccc2)c2cccc(OC)c2)nc1C (stereo not shown) [Example 100, ethyl 2-((2,2-dimethyl-3-(3-(methyloxy)phenyl)-3-phenylpropanoyl)amino)-4-methyl-1,3-thiazole-5-carboxylate]
- Emax: 30%

SMILES: COc1cccc(C(c2ccccc2)C(C)(C)C(=O)Nc2nc3ccccc3s2)c1 (stereo not shown) [Example 101, N-1,3-benzothiazol-2-yl-2,2-dimethyl-3-(3-(methyloxy)phenyl)-3-phenylpropanamide]
- Emax: 26.9%

SMILES: COc1ccc(C(c2ccccc2)C(C)(C)C(=O)Nc2nc(C)cs2)cc1 (stereo not shown) [Example 104, 2,2-dimethyl-3-(4-(methyloxy)phenyl)-N-(4-methyl-1,3-thiazol-2-yl)-3-phenylpropanamide]
- Emax: 27.3%

SMILES: COc1ccc(C(c2ccccc2)C(C)(C)C(=O)Nc2ncc(C)s2)cc1 (stereo not shown) [Example 105, 2,2-dimethyl-3-(4-(methyloxy)phenyl)-N-(5-methyl-1,3-thiazol-2-yl)-3-phenylpropanamide]
- Emax: 22.1%

SMILES: COc1ccc(C(c2ccccc2)C(C)(C)C(=O)Nc2nc(C)c(C)s2)cc1 (stereo not shown) [Example 106, N-(4,5-dimethyl-1,3-thiazol-2-yl)-2,2-dimethyl-3-(4-(methyloxy)phenyl)-3-phenylpropanamide]
- Emax: 35.9%

SMILES: COc1ccc(C(c2ccccc2)C(C)(C)C(=O)Nc2nc(-c3ccccc3)cs2)cc1 (stereo not shown) [Example 107, 2,2-dimethyl-3-(4-(methyloxy)phenyl)-3-phenyl-N-(4-phenyl-1,3-thiaozl-2-yl)propanamide]
- Emax: 38.4%

SMILES: COc1ccc(C(c2ccccc2)C(C)(C)C(=O)Nc2nc(CCc3ccccc3)cs2)cc1 (stereo not shown) [Example 109, 2,2-dimethyl-3-(4-(methyloxy)phenyl)-3-phenyl-N-(4-(2-phenylethyl)-1,3-thiazol-2-yl)propanamide]
- Emax: 22.6%

SMILES: CCOC(=O)c1sc(NC(=O)C(C)(C)C(c2ccccc2)c2ccc(OC)cc2)nc1C (stereo not shown) [Example 112, ethyl 2-((2,2-dimethyl-3-(4-(methyloxy)phenyl)-3-phenylpropanoyl)amino)-4-methyl-1,3-thiazole-5-carboxylate]
- Emax: 20.9%

SMILES: O=C(Nc1nccs1)C1(C(c2ccccc2)c2ccccc2)CCCC1 [Example 162, 1-(diphenylmethyl)-N-1,3-thiazol-2-ylcyclopentanecarboxamide]
- Emax: 22.8%

SMILES: Cc1ccc(-c2csc(NC(=O)C(C)(C)C(c3ccccc3)c3ccccc3)n2)c2ccccc12 [Example 164, 2,2-dimethyl-N-(4-(4-methyl-1-naphthalenyl)-1,3-thiazol-2-yl)-3,3-diphenylpropanamide]
- Emax: 75.2%
- EC50: 810 nM

SMILES: COc1ccc2c(-c3csc(NC(=O)C(C)(C)C(c4ccccc4)c4ccccc4)n3)cccc2c1 [Example 166, 2,2-dimethyl-N-(4-(6-(methyloxy)-1-naphthalenyl)-1,3-thiazol-2-yl)-3,3-diphenylpropanamide]
- Emax: 62.3%
- EC50: 950 nM

SMILES: CC(C)(C(=O)Nc1nc(-c2ccc(F)cc2)cs1)C(c1ccccc1)c1ccccc1 [Example 168, N-(4-(4-fluorophenyl)-1,3-thiazol-2-yl)-2,2-dimethyl-3,3-diphenylpropanamide]
- Emax: 23%

SMILES: Cc1cccc(-c2csc(NC(=O)C(C)(C)C(c3ccccc3)c3ccccc3)n2)c1 [Example 170, 2,2-dimethyl-N-(4-(3-methylphenyl)-1,3-thiazol-2-yl)-3,3-diphenylpropanamide]
- Emax: 27%

SMILES: CC(C)(c1ccccc1)c1csc(NC(=O)C(C)(C)C(c2ccccc2)c2ccccc2)n1 [Example 181, 2,2-dimethyl-N-(4-(1-methyl-1-phenylethyl)-1,3-thiazol-2-yl)-3,3-diphenylpropanamide]
- Emax: 28.9%

SMILES: CC(C)(C(=O)Nc1nc(-c2ccc(F)c3ccccc23)cs1)C(c1ccccc1)c1ccccc1 [Example 183, N-(4-(4-fluoro-1-naphthalenyl)-1,3-thiazol-2-yl)-2,2-dimethyl-3,3-diphenylpropanamide]
- Emax: 65.3%

SMILES: CC(C)(C(=O)Nc1nc(-c2ccnc3ccccc23)cs1)C(c1ccccc1)c1ccccc1 [Example 184, 2,2-dimethyl-3,3-diphenyl-N-(4-(4-quinolinyl)-1,3-thiazol-2-yl)propanamide]
- Emax: 57.5%

SMILES: CC(C)(C(=O)Nc1nccs1)C(c1ccc(O)cc1)c1ccc(O)cc1 [Example 186, 3,3-bis(4-hydroxyphenyl)-2,2-dimethyl-N-1,3-thiazol-2-ylpropanamide]
- Emax: 20.5%

SMILES: CCOC(=O)c1sc(NC(=O)C(C)(C)C(c2ccc(O)cc2)c2ccc(O)cc2)nc1C [Example 194, ethyl 2-((3,3-bis(4-hydroxyphenyl)-2,2-dimethylpropanoyl)amino)-4-methyl-1,3-thiazole-5-carboxylate]
- Emax: 25.4%

SMILES: CC(C)(C(=O)Nc1nccs1)C(c1ccccc1)c1cccc(O)c1 (stereo not shown) [Example 197, 3-(3-hydroxyphenyl)-2,2-dimethyl-3-phenyl-N-1,3-thiazol-2-ylpropanamide]
- Emax: 36.3%
